Data as given in paper PMC7702721 (The AAPS journal, 2016).
Where two headings read alike, the source gives them in different places. Each block holds one compound with its values, some of them ahead of it.

Tests used:
Caco-2 monolayer [1] = experiment: Transporter inhibition experiments in the Caco-2 monolayer; conditions: kaempferol 10 μM
[2] = test system: rat hepatic and segmental intestinal preparations; experiment: Kaempferol glucuronidation via rat hepatic and segmental intestinal microsomes; type: in vitro ADME, SD rats
[3] = Pharmacokinetic study in rats after oral administration of kaempferol; type: in vivo, Sprague–Dawley (SD) rats; conditions: for AUC0-t / Cmax / MRT0-t / Tmax / AUC0−∞ / MRT last: plasma; for AUC0−∞: predicted AUC
Caco-2 monolayer [4] = experiment: Bidirectional efflux of kaempferol-glucuronides across the Caco-2 monolayer; type: in vitro ADME; conditions: 10 μM kaempferol loaded AP or BL, 2 h
[5] = type: in vivo, FVB mice; conditions: oral kaempferol 10 mg/kg; for fold higher plasma Cmax and AUC0-t in absence of Bcrp versus wild-type: Bcrp1^−/− vs wild-type FVB mice
[6] = In situ four-site rat intestinal perfusion of kaempferol
[7] = test system: hepatic and intestinal S9 fractions; type: in vitro ADME, FVB mice; conditions: kaempferol 0.125 μM
[8] = test system: hepatic and intestinal S9 fractions; type: in vitro ADME, FVB mice; conditions: kaempferol 1.25 μM
[9] = ref [20]; cited from earlier work
[10] = test system: rat hepatic and segmental intestinal preparations; experiment: Kaempferol sulfation via rat hepatic and segmental intestinal S9 fraction; type: in vitro ADME, SD rats; conditions: kaempferol 0.125, 0.5 and 1.25 μM, S9 fraction 0.02 mg/mL
[11] = rat, in vivo
[12] = male SD rats, oral kaempferol 10 mg/kg, n = 6
[13] = male SD rats, oral kaempferol 20 mg/kg, n = 6
[14] = perfusion with 5 μM or 20 μM kaempferol
[15] = male, Sprague-Dawley, rat, po, 10 mg/kg
[16] = male, Sprague-Dawley, rat, po, 20 mg/kg

glucuronide formation by liver microsomes, K-7-G versus K-3-G ([2]; rat liver microsomes): more K-7-G than K-3-G | AUC0-t [3, 12]: 310 ± 95 µmol·min/L | Cmax [3, 12]: 5.29 ± 2.97 µM | MRT0-t [3, 12]: 2.1 ± 0.617 h | Tmax [3, 12]: 0.292 ± 0.0833 h | AUC0-t [3, 13]: 802 ± 231 µmol·min/L | Cmax [3, 13]: 9.55 ± 3.37 µM | MRT0-t [3, 13]: 2.17 ± 0.717 h | Tmax [3, 13]: 0.267 ± 0.0917 h | AUC0−∞ [3, 12]: 314 ± 96 µmol·min/L | AUC0−∞ [3, 13]: 811 ± 311 µmol·min/L | efflux toward the BL side compared with that toward the AP side (Caco-2 monolayer [4]): not more than twice higher | AUC0-t ([5]; Bcrp1^−/− FVB mice): 464 ± 234 µmol·min/L | Cmax ([5]; Bcrp1^−/− FVB mice): 14.9 ± 3.6 µM | MRT ([5]; Bcrp1^−/− FVB mice): 0.757 ± 0.372 h | fold higher plasma Cmax and AUC0-t in absence of Bcrp versus wild-type [5]: > 4 fold | AUC0-t ([5]; Mdr1a^−/− FVB mice): 63.1 ± 15.3 µmol·min/L | Cmax ([5]; Mdr1a^−/− FVB mice): 1.12 ± 0.68 µM | MRT ([5]; Mdr1a^−/− FVB mice): 4.07 ± 0.367 h | AUC0-t ([5]; Mrp1^−/− FVB mice): 13.9 ± 12.0 µmol·min/L | Cmax ([5]; Mrp1^−/− FVB mice): 0.839 ± 0.853 µM | MRT ([5]; Mrp1^−/− FVB mice): 0.43 ± 0.277 h | AUC0-t ([5]; Mrp2^−/− FVB mice): 392 ± 78 µmol·min/L | Cmax ([5]; Mrp2^−/− FVB mice): 14.3 ± 4.8 µM | MRT ([5]; Mrp2^−/− FVB mice): 1.52 ± 0.302 h | AUC0-t ([5]; wild-type FVB mice): 114 ± 79 µmol·min/L | Cmax ([5]; wild-type FVB mice): 2.91 ± 1.94 µM | MRT ([5]; wild-type FVB mice): 1.36 ± 0.57 h
Compound: O=C(O)[C@H]1O[C@@H](Oc2cc(O)c3c(=O)c(O)c(-c4ccc(O)cc4)oc3c2)[C@H](O)[C@@H](O)[C@@H]1O [K-7-G, kaempferol-7-glucuronide]
amount of K-7-G in the perfusate compared with K-3-G ([6]; 20 μM perfusion): slightly higher than that of K-3-G in duodenum and jejunum, but was significantly higher in ileum and colon | regional excretion of metabolite in the perfusate [6, 14]: highest excretion in duodenum and jejunum and the lowest excretion in colon

decrease of sulfation rate versus wild-type ([7]; intestine S9, Mdr1a^−/− mice): ~47% | decrease of sulfation rate versus wild-type ([7]; intestine S9, Mrp1^−/− mice): ~ 25% | decrease of sulfation rate versus wild-type ([7]; intestine S9, Mrp2^−/− mice): ~79% | decrease of sulfation rate versus wild-type ([7]; liver S9, Mdr1a^−/− mice): ~39% | decrease of sulfation rate versus wild-type ([7]; liver S9, Mrp1^−/− mice): ~ 11% | decrease of sulfation rate versus wild-type ([7]; liver S9, Mrp2^−/− mice): ~59% | increase of glucuronidation rate versus wild-type ([8]; liver S9, Bcrp1^−/− mice): 32% | decrease of hepatic glucuronidation rate versus wild-type ([8]; liver S9, Mdr1a^−/− mice): ~30% | decrease of hepatic glucuronidation rate versus wild-type ([8]; liver S9, Mrp1^−/− mice): ~ 26% | decrease of hepatic glucuronidation rate versus wild-type ([8]; liver S9, Mrp2^−/− mice): ~ 11% | Cmax [3, 15]: 0.305 ± 0.106 µM | MRT last [3, 15]: 0.437 h | Tmax [3, 15]: 0.445 h | Cmax [3, 16]: 0.647 ± 0.244 µM | MRT last [3, 16]: 2.47 h | Tmax [3, 16]: 0.3 h | AUC0-t [3, 12]: 10.3 ± 3.8 µmol·min/L | AUC0-t [3, 13]: 51.8 ± 17.2 µmol·min/L | AUC0−∞ [3, 12]: 11.4 ± 3.7 µmol·min/L | AUC0−∞ [3, 13]: 57.9 ± 13.6 µmol·min/L | Cmax of kaempferol, times lower than that of K-3-G ([3]; rats, oral kaempferol): approximately 50 times | Cmax of kaempferol, times lower than that of K-7-G ([3]; rats, oral kaempferol): ~16 times | time to reach Cmax ([3]; rats, oral kaempferol): ≤ 30 min | sulfation reaction rates by tissue [10]: highest reaction rates in liver | free kaempferol plasma concentration (below LLOQ) ([5]; at most periods, all strains of mice): < 3.9 nM
Compound: O=c1c(O)c(-c2ccc(O)cc2)oc2cc(O)cc(O)c12 [Kaempferol, 3,4′,5,7-trihydroxyflavone]
glucuronidation rates by segment ([2]; kaempferol 1.25, 2.5 and 10 μM, microsomes 0.00318 mg/mL): high and low glucuronidation rates were observed in the small intestine and colon, respectively | bioavailability [9]: lower than 2% | regional absorption of kaempferol [6, 14]: faster absorption in colon than in jejunum and ileum

Cmax [3, 15]: 0.332 ± 0.085 µM | MRT last [3, 15]: 17.5 h | Tmax [3, 15]: 18.7 h | Cmax [3, 16]: 0.703 ± 0.296 µM | MRT last [3, 16]: 18.2 h | Tmax [3, 16]: 15.2 h | AUC0-t [3, 12]: 454 ± 90 µmol·min/L | AUC0-t [3, 13]: (1.15 ± 0.22) ×10^3 min•μmol/L | AUC0−∞ [3, 12]: 536 ± 164 µmol·min/L | AUC0−∞ [3, 13]: (1.65 ± 0.56) ×10^3 min•μmol/L | time after dose at which still detected in plasma ([3]; rats, oral kaempferol): 36 h | AUC0-t ([5]; Bcrp1^−/− FVB mice): 156 ± 55 µmol·min/L | AUC0-t ([5]; Mdr1a^−/− FVB mice): 36.7 ± 37.0 µmol·min/L | AUC0-t ([5]; Mrp1^−/− FVB mice): 6.72 ± 5.83 µmol·min/L | AUC0-t ([5]; Mrp2^−/− FVB mice): 102 ± 10 µmol·min/L | Cmax ([5]; male, FVB, mouse, plasma, po, 10 mg/kg, Cmax, wild-type FVB mice): 0.301 ± 0.185 µM | MRT ([5]; male, FVB, mouse, plasma, po, 10 mg/kg, MRT, wild-type FVB mice): 2.75 h | AUC0-t ([5]; wild-type FVB mice): 49.5 ± 38.6 µmol·min/L
Compound: O=c1c(O)c(-c2ccc(O)cc2)oc2cc(OS(=O)(=O)O)cc(O)c12 [K-7-S, kaempferol-7-sulfate]
regional excretion of metabolite in the perfusate [6, 14]: highest excretion in colon and lowest excretion in ileum

detection in plasma during perfusion [11]: detected in plasma | AUC0-t [3, 12]: (1.74 ± 0.47) ×10^3 min•μmol/L | Cmax [3, 12]: 24.6 ± 7 µM | MRT0-t [3, 12]: 1.48 ± 0.233 h | Tmax [3, 12]: 0.333 ± 0.148 h | AUC0-t [3, 13]: (2.79 ± 0.33) ×10^3 min•μmol/L | Cmax [3, 13]: 30.9 ± 5.5 µM | MRT0-t [3, 13]: 1.9 ± 0.467 h | Tmax [3, 13]: 0.4 ± 0.0917 h | AUC0−∞ [3, 12]: (1.76 ± 0.46) ×10^3 min•μmol/L | AUC0−∞ [3, 13]: (2.81 ± 0.33) ×10^3 min•μmol/L | AUC of K-3-G, times higher than that of K-7-G ([3]; rats, 10 mg/kg kaempferol): five | AUC of K-3-G, times higher than that of K-7-S ([3]; rats, 10 mg/kg kaempferol): four | Cmax and AUC of K-3-G relative to K-7-G ([3]; rats, oral kaempferol): threefold to fivefold higher | efflux toward the BL side compared with that toward the AP side (Caco-2 monolayer [4]): approximately six times higher | AUC0-t ([5]; Bcrp1^−/− FVB mice): 848 ± 123 µmol·min/L | Cmax ([5]; Bcrp1^−/− FVB mice): 18 ± 6.4 µM | MRT ([5]; Bcrp1^−/− FVB mice): 1.62 ± 0.362 h | fold higher plasma Cmax and AUC0-t in absence of Bcrp versus wild-type [5]: ~ 2 fold | AUC0-t ([5]; Mdr1a^−/− FVB mice): 143 ± 83 µmol·min/L | Cmax ([5]; Mdr1a^−/− FVB mice): 4.62 ± 1.14 µM | MRT ([5]; Mdr1a^−/− FVB mice): 1.88 ± 1.18 h | AUC0-t ([5]; Mrp1^−/− FVB mice): 38.0 ± 29.1 µmol·min/L | Cmax ([5]; Mrp1^−/− FVB mice): 1.75 ± 1.18 µM | MRT ([5]; Mrp1^−/− FVB mice): 0.557 ± 0.332 h | AUC0-t ([5]; Mrp2^−/− FVB mice): (1.28 ± 0.27) ×10^3 min•μmol/L | Cmax ([5]; Mrp2^−/− FVB mice): 32.3 ± 9.7 µM | MRT ([5]; Mrp2^−/− FVB mice): 1.51 ± 0.183 h | AUC0-t ([5]; wild-type FVB mice): 365 ± 195 µmol·min/L | Cmax ([5]; wild-type FVB mice): 8.92 ± 1.69 µM | MRT ([5]; wild-type FVB mice): 1.72 ± 0.483 h
Compound: O=C(O)[C@H]1O[C@@H](Oc2c(-c3ccc(O)cc3)oc3cc(O)cc(O)c3c2=O)[C@H](O)[C@@H](O)[C@@H]1O [K-3-G, kaempferol-3-glucuronide]
regional excretion of metabolite in the perfusate [6, 14]: highest excretion in duodenum and jejunum and the lowest excretion in colon

More lines, now with the values behind:

Compound: CCCCC/C=C\C\C=C/C=C/C=C/[C@@H](SC[C@H](NC(=O)CC[C@H](N)C(=O)O)C(=O)NCC(=O)O)[C@@H](O)CCCC(=O)O [LTC4]
effect on Fmet (BL to AP) of the three metabolites (Caco-2 monolayer [1]; LTC4 0.1 μM): decreased | effect on intracellular amounts of K-3-G and K-7-G (AP to BL) (Caco-2 monolayer [1]; LTC4 0.1 μM): significantly increased | effect on amounts of the three metabolites in the AP side (Caco-2 monolayer [1]; LTC4 0.1 μM, except K-7-S (AP to BL)): reduced

Compound: COc1ccc2c3c([nH]c2c1)[C@H](CC(C)C)N1C(=O)[C@H](CCC(=O)OC(C)(C)C)NC(=O)[C@@H]1C3 [Ko143]
effect on bidirectional efflux rates and Fmet of the two glucuronides (Caco-2 monolayer [1]; Ko143 10 μM): significantly decreased | effect on efflux rates and Fmet of K-7-S (Caco-2 monolayer [1]; Ko143 10 μM): No statistical differences

Compound: CN(C)C(=O)CCSC(SCCC(=O)O)c1cccc(/C=C/c2ccc3ccc(Cl)cc3n2)c1 (stereo not drawn) [MK571]
effect on intracellular amounts of the three metabolites (Caco-2 monolayer [1]; MK571 10 μM): did not significantly influence | effect on the three metabolites transported into BL side (Caco-2 monolayer [1]; MK571 10 μM): dramatically reduced | effect on efflux rates of the three metabolites toward the BL side (Caco-2 monolayer [1]; MK571 10 μM, except K-7-G (AP to BL)): significantly lowered
